Converted amounts (≈) assume the structure as drawn.
Key:
Assay in all cases: Other MIC determination, microdilution method (CLSI M07-A9) with modifications
Type in all cases: cell-based
[1] = test system: Staphylococcus saprophyticus (CHUG-Ssap2); conditions: clinical strain
Method: (§1) The microdilution method recommended by the Clinical and Laboratory Standard Institute [M07-A9, Vol.32, N°2] was used with the following modifications.
(§2) Bacterial inocula were prepared in Mueller Hinton broth (MH2, BioMérieux, Marcy L'Etoile, France). They were dispensed in 96 well microtiter plates (10^6 CFU/ml of final inoculum, 192 µL per well).
(§3) To avoid cross-contaminations in microtiter plates, one row was left blank between each strain tested. Microplates were incubated for 18h at 37 °C in ambient air. Then MICs were read visually and, in case of visual reading difficulties, confirmed using a spectrophotometer at a wavelength of 630 nm (BioTek® EL808 Absorbance Microplate Reader). MICs corresponded to the minimum pyrrolic compound concentrations that allowed complete visual growth inhibition of bacteria. Drug-free cultures served as growth controls.
(§4) We used four Staphylococcus aureus strains. Two reference strains were provided by the French reference center for Staphylococcus spp. (Lyon, France), including one methicillin-susceptible (MSSA 476) and one methicillin-resistant (MRSA 252) S. aureus strains. The two remaining S. aureus strains were purchased from the CRBIP (Centre de Ressources Biologiques de l'Institut Pasteur): a vancomycin-intermediate strain (ATCC 106414) and a S. aureus strain (SA-1199B) resistant to fluoroquinolones due to overexpression of the NorA multidrug efflux pump. Coagulase-negative Staphylococcus strains included three reference strains purchased from CRBIP: a methicillin-susceptible S. epidermidis strain (ATCC 12228), a methicillin-resistant S. epidermidis strain (ATCC 49461), and a methicillin-susceptible S. sciuri strain (ATCC 29061). We also used 37 clinical strains belonging to the following coagulase-negative Staphylococcus species: S. arlettae (two strains), S. capitis (nine strains), S. epidermidis (one strain), S. haemolyticus (six strains), S. hominis (eight strains), S. lugdunensis (one strain), S. massiliensis (one strain), S. pettenkoferi (two strains), S. saprophyticus (two strains), S. simulans (one strain), and S. warneri (four strains) . Identification of the clinical strains was first obtained using VITEK® 2 System (Biomérieux) and confirmed by amplification and sequencing of the tuf gene (Reference: Bergeron, M., O. Dauwalder, M. Gouy, A.-M. Freydiere, M. Bes, H. Meugnier, Y. Benito, J. Etienne, G. Lina, F. Vandenesch, and S. Boisset. Species identification of staphylococci by amplification and sequencing of the tuf gene compared to the gap gene and by matrix-assisted laser desorption ionization time-of-flight mass spectrometry, Eur. J. Clin. Microbial. Infect. Dis. 2011, 30, 343-354).
(§5) The activity of the pyrrolic compounds 3c and 3i was further tested against 32 clinical strains belonging to 11 coagulase-negative Staphylococcus species.

[2] = test system: Staphylococcus capitis (CHUG-Scapi3); conditions: clinical strain
Method: as §1, §2, §3, §4, §5

[3] = test system: Staphylococcus capitis (CHUG-Scapi4); conditions: clinical strain
Method: as §1, §2, §3, §4, §5

[4] = test system: Staphylococcus haemolyticus (CHUG-Shae6)
Method: as §1, §2, §3, §4, §5

[5] = test system: Staphylococcus arlettae (CHUG-Sarl2, meti-R)
Method: as §1, §2, §3, §4, §5

[6] = test system: Staphylococcus haemolyticus (CHUG-Shae2)
Method: as §1, §2, §3, §4, §5

[7] = test system: Staphylococcus haemolyticus (CHUG-Shae7)
Method: as §1, §2, §3, §4, §5

[8] = test system: Staphylococcus hominis (CHUG-Shom7); conditions: clinical strain
Method: as §1, §2, §3, §4, §5

[9] = test system: Staphylococcus capitis (CHUG-Scapi9); conditions: clinical strain
Method: as §1, §2, §3, §4, §5

[10] = test system: Staphylococcus capitis (CHUG-Scapi5); conditions: clinical strain
Method: as §1, §2, §3, §4, §5

[11] = test system: Staphylococcus haemolyticus (CHUG-Shae4)
Method: as §1, §2, §3, §4, §5

[12] = test system: Staphylococcus capitis (CHUG-Scapi2); conditions: clinical strain
Method: as §1, §2, §3, §4, §5

[13] = test system: Staphylococcus hominis (CHUG-Shom8); conditions: clinical strain
Method: as §1, §2, §3, §4, §5

[14] = test system: Staphylococcus simulans (CHUG-Ssim1); conditions: clinical strain
Method: as §1, §2, §3, §4, §5

[15] = test system: Staphylococcus warneri (CHUG-Swar4); conditions: clinical strain
Method: as §1, §2, §3, §4, §5

[16] = test system: Staphylococcus warneri (CHUG-Swar3); conditions: clinical strain
Method: as §1, §2, §3, §4, §5

[17] = test system: Staphylococcus saprophyticus (CHUG-Ssap1); conditions: clinical strain
Method: as §1, §2, §3, §4, §5

[18] = test system: Staphylococcus lugdunensis (CHUG-Slug1); conditions: clinical strain
Method: as §1, §2, §3, §4, §5

[19] = test system: Staphylococcus hominis (CHUG-Shom6); conditions: clinical strain
Method: as §1, §2, §3, §4, §5

[20] = test system: Staphylococcus massiliensis (CHUG-Smas1); conditions: clinical strain
Method: as §1, §2, §3, §4, §5

[21] = test system: Staphylococcus hominis (CHUG-Shom5); conditions: clinical strain
Method: as §1, §2, §3, §4, §5

[22] = test system: Staphylococcus hominis (CHUG-Shom2); conditions: clinical strain
Method: as §1, §2, §3, §4, §5

[23] = test system: Staphylococcus arlettae (CHUG-Sarl1); conditions: clinical strain
Method: as §1, §2, §3, §4, §5

[24] = test system: Staphylococcus haemolyticus (CHUG-Shae3)
Method: as §1, §2, §3, §4, §5

[25] = test system: Staphylococcus epidermidis (CHUG-Sepi1); conditions: clinical strain
Method: as §1, §2, §3, §4, §5

`CC(=O)c1c(C)[nH]c(C(c2[nH]c(C)c(C(C)=O)c2C)c2csc3ccccc23)c1C` [3i] showed an MIC [1] of 8 µg/mL (≈ 19.1 µM), an MIC [2] of 1 µg/mL (≈ 2.39 µM) and an MIC [3] of 1 µg/mL (≈ 2.39 µM). For the same compound, the MIC [4] was 4 µg/mL (≈ 9.56 µM), the MIC [5] was 16 µg/mL (≈ 38.2 µM) and the MIC [6] was 8 µg/mL (≈ 19.1 µM). It also gave an MIC [7] of 4 µg/mL (≈ 9.56 µM), an MIC [8] of 8 µg/mL (≈ 19.1 µM) and an MIC [9] of 2 µg/mL (≈ 4.78 µM). It also gave an MIC [10] of 2 µg/mL (≈ 4.78 µM), an MIC [11] of 4 µg/mL (≈ 9.56 µM) and an MIC [12] of 2 µg/mL (≈ 4.78 µM). For the same compound, the MIC [13] was > 32 µg/mL, the MIC [14] was > 32 µg/mL and the MIC [15] was 4 µg/mL (≈ 9.56 µM). For the same compound, the MIC [16] was 1 µg/mL (≈ 2.39 µM), the MIC [17] was 8 µg/mL (≈ 19.1 µM) and the MIC [18] was > 16 µg/mL. The MIC [19] was > 32 µg/mL, the MIC [20] was > 16 µg/mL and the MIC [21] was 16 µg/mL (≈ 38.2 µM). For the same compound, the MIC [22] was > 16 µg/mL, the MIC [23] was > 16 µg/mL and the MIC [24] was 4 µg/mL (≈ 9.56 µM). The MIC [25] was > 32 µg/mL.

In the case of `CC(=O)c1c(C)[nH]c(C(c2ccc(Cl)cc2)c2[nH]c(C)c(C(C)=O)c2C)c1C` [3c], the MIC [1] is reported as > 32 µg/mL, the MIC [2] is reported as 8 µg/mL (≈ 20.2 µM) and the MIC [3] is reported as 4 µg/mL (≈ 10.1 µM). The MIC [4] was 16 µg/mL (≈ 40.3 µM), the MIC [5] was > 32 µg/mL and the MIC [6] was > 32 µg/mL. For the same compound, the MIC [7] was 16 µg/mL (≈ 40.3 µM), the MIC [8] was > 32 µg/mL and the MIC [9] was 8 µg/mL (≈ 20.2 µM). For the same compound, the MIC [10] was 8 µg/mL (≈ 20.2 µM), the MIC [11] was 16 µg/mL (≈ 40.3 µM) and the MIC [12] was 16 µg/mL (≈ 40.3 µM). For the same compound, the MIC [13] was > 32 µg/mL, the MIC [14] was > 32 µg/mL and the MIC [15] was 16 µg/mL (≈ 40.3 µM). The MIC [16] was 8 µg/mL (≈ 20.2 µM), the MIC [17] was > 32 µg/mL and the MIC [18] was > 32 µg/mL. For the same compound, the MIC [19] was > 32 µg/mL, the MIC [20] was > 32 µg/mL and the MIC [21] was 8 µg/mL (≈ 20.2 µM). For the same compound, the MIC [22] was > 32 µg/mL, the MIC [23] was > 32 µg/mL and the MIC [24] was 16 µg/mL (≈ 40.3 µM). The MIC [25] was 8 µg/mL (≈ 20.2 µM).
